# BindingDB's records for patent US20240067631 (Cytokinetics, 2024)
# Target: Nicotinamide phosphoribosyltransferase (Homo sapiens, UniProt P43490)
# Test: NMN Fluorescence Biochemical Assay
# Description: Human Recombinant Enzyme Assay: Compounds described herein were assayed for their ability to stimulate the synthesis of nicotinamide mononucleotide (NMN) by the enzyme NAMPT. The human recombinant enzyme assay measures the activation of the enzyme activity by compounds using recombinant enzyme and substrates in a buffered cell-free system. The assay conditions closely mimic cellular environments. Dose responses were measured using an assay to detect the formation of nicotinamide mono-nucleotide. All experiments were performed in the 384-well format. Generally, 0.5 μL of DMSO containing varying concentrations of the test compound was mixed with 10 μL of the enzyme reagent solution. Enzyme reactions were initiated with the addition of 10 μL of a solution containing the substrates. The final assay conditions were as follows: 6 nM human NAMPT, 2.5 mM ATP, […] in 50 mM HEPES, pH 7.2, 1 mM DTT, 1 mM CHAPS 50 mM NaCl, 100 mM MgCl2. Following an incubation of 60 min at ambient temperature, 10 μL of 20% acetophenone in DMSO was added, followed by 10 μL of 2 M KOH and 40 μL of formic acid. The plates were read for fluorescence (Excitation/Emission=355 nm/460 nm) using an EnVision plate reader after 40 mins of incubation at ambient temperature. […]
# Chain of Nicotinamide phosphoribosyltransferase (P43490 whole entry): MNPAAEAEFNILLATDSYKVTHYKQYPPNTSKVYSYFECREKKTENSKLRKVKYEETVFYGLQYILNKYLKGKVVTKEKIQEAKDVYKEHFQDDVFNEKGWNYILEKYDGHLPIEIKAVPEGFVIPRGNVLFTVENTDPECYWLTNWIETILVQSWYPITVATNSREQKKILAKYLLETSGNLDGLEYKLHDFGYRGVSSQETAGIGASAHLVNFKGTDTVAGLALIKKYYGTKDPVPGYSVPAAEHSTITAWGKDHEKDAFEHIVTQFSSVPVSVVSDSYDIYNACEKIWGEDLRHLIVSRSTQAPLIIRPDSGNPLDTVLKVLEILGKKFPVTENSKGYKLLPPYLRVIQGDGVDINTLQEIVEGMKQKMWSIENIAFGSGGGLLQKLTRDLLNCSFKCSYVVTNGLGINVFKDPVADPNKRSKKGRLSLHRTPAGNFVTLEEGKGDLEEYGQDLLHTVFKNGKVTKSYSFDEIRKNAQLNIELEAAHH
row,EC50 [µM],Compound
1,4.09,"Cc1ccc([C@@H](C)NC(=O)c2nc(C)c(C)c(NCCc3cn[nH]c3)n2)o1 [US20240067631, Compound 101]"
2,3.52,"Cc1nc(C(=O)N2CCN(Cc3ccccc3)C(=O)C2)nc(NCCc2cn[nH]c2)c1C [US20240067631, Compound 45]"
